Test results taken from patent publication US20040018500A1, “Methods and systems for analyzing complex biological systems” (priority 2001, published 2004).

Test system: Saccharomyces cerevisiae wild type strain BY4743
Test: AF1 metabolite analysis (GC-MS, LC-MS) of yeast treated with antifungal drugs
Assay type: cell-based
Conditions: for # Compounds perturbed: yeast, 2×MIC, two hours

## C[C@@H]1[C@H](O)[C@@H](C)/C=C/C=C/C=C/C=C/C=C/C=C/C=C/[C@H](O[C@@H]2O[C@H](C)[C@@H](O)[C@H](N)[C@@H]2O)C[C@@H]2O[C@](O)(C[C@@H](O)C[C@@H](O)[C@H](O)CC[C@@H](O)C[C@@H](O)CC(=O)O[C@H]1C)C[C@H](O)[C@H]2C(=O)O [Amphoteracin B]
GC
  Fold Change of TMS mevalonic acid lactone: −0.9767
  Fold Change of alanine: −0.7773
  Fold Change of asparagine: −1
  Fold Change of aspartic acid: −0.9743
  Fold Change of campesterol: 0
  Fold Change of desmosterol: 0
  Fold Change of disaccaride1: −1
  Fold Change of disaccaride2: −0.9977
  Fold Change of disaccaride3: −0.9977
  Fold Change of ergosterol: 2.303
  Fold Change of fucosterol: −0.6553
  Fold Change of glutamine: −0.9116
  Fold Change of glycanopyrose: −0.958
  Fold Change of glycerol: −0.815
  Fold Change of glycine: 0.8807
  Fold Change of hexadecanoic acid: −0.2427
  Fold Change of iso citric acid: −0.6183
  Fold Change of isoleucine: −0.9533
  Fold Change of lanosterol: −1
  Fold Change of leucine: −0.9443
  Fold Change of lysine: −0.3925
  Fold Change of malic acid: −0.963
  Fold Change of mevalonic acid lactone: −0.1276
  Fold Change of octadecanoic acid: 0.21
  Fold Change of oleic acid: −0.4593
  Fold Change of ornithine2: −1
  Fold Change of ornithine3: −0.9853
  Fold Change of palmiteliadic acid: 0.515
  Fold Change of phenylalanine: −0.9797
  Fold Change of phosphate: −0.007333
  Fold Change of pyrimidine: −0.185
  Fold Change of squalene: −0.5745
  Fold Change of tetradecanoic acid: 0.07967
  Fold Change of threonine2: −0.8553
  Fold Change of threonine3: −0.8933
  Fold Change of tms glutamine3: −0.8935
  Fold Change of tms lysine4: −0.9783
  Fold Change of tms tyrosine2: −0.3593
  Fold Change of tms tyrosine3: −0.9473
  Fold Change of valine: −0.8673
LC
  Fold Change of abscisic acid: 0
  Fold Change of adenosine: 0
  Fold Change of glutamine/lysine: 0.3981
  Fold Change of guanosine: 0.7598
  Fold Change of riboflavin: 0
  Fold Change of serine: 0.2011
  Fold Change of tyrosine: 0.2347
P < 0.05
  # Compounds perturbed: 16
P < 0.1
  # Compounds perturbed: 21
nLC
  Fold Change of 2-ketobutyric acid: −0.9992
  Fold Change of 2-ketoglutaric: 8.791
  Fold Change of 3-indolylacetonitri: −0.9998
  Fold Change of 4-methylcatechol: 0
  Fold Change of 4aminobutyrate/dimg: −0.1983
  Fold Change of 5hydroxyLtryptophan: 0
  Fold Change of 6-benzylaminopurine: 0
  Fold Change of DLaminoadipic acid: 1.411
  Fold Change of NacetylDglucosamine: 0
  Fold Change of NacetylLglutamate: −0.1078
  Fold Change of NacetylLornithine: 0
  Fold Change of abscisic acid: 0
  Fold Change of aconitic acid: 0.5426
  Fold Change of adenine: 0
  Fold Change of adenosine: 0
  Fold Change of alanine: 0.1599
  Fold Change of allantoic acid: −0.1456
  Fold Change of allantoin: 3.97
  Fold Change of anthranilic acid: 0
  Fold Change of arginine: −0.4885
  Fold Change of argininosuccinate: 0
  Fold Change of asparagine: 0.1511
  Fold Change of aspartic: 0.2407
  Fold Change of benzoic acid: 0
  Fold Change of biotin: 1.077
  Fold Change of caffeic acid: −0.5882
  Fold Change of catechol: 0
  Fold Change of cinnamic acid: 0
  Fold Change of citricanoic/itaconi: 0
  Fold Change of citrulline: 1659
  Fold Change of coumaric acid: 0
  Fold Change of cytidine: −0.9986
  Fold Change of cytosine: 0
  Fold Change of decanoic acid: −0.08716
  Fold Change of diaminopimelic acid: 0
  Fold Change of dihydrofolic acid: 0
  Fold Change of estrone: 0
  Fold Change of farnesol: 0
  Fold Change of folic acid: 0
  Fold Change of fumaric/3m2oxobutan: 0.4423
  Fold Change of gallic acid: 0.1622
  Fold Change of gibberellic: 0
  Fold Change of giutamine/lysine: 0.07919
  Fold Change of glucosamine6PO4: −0.9951
  Fold Change of glutamic/acetylseri: 0.1414
  Fold Change of guanine: 0
  Fold Change of guanosine: 1.131
  Fold Change of histidine: 0
  Fold Change of homogentisic/uric: 0
  Fold Change of hydrocortisone: 0
  Fold Change of hypoxanthine: 0.1655
  Fold Change of indole3pyruvic acid: 0
  Fold Change of inostol/glucos/sorb: −0.5905
  Fold Change of isocitric/citric/qu: 2.549
  Fold Change of jasmonic acid: 0
  Fold Change of kinetin: 0
  Fold Change of lactic acid: −0.02583
  Fold Change of lauric acid: 0.1225
  Fold Change of leucine/isoleucine/: 0.1319
  Fold Change of luteolin: 0
  Fold Change of malic acid: 0.6212
  Fold Change of malonic acid: 0
  Fold Change of menthol*: −0.07013
  Fold Change of methionine: 0
  Fold Change of nopaline: 0.3342
  Fold Change of oleic acid: 0.689
  Fold Change of ornithine: 2.534
  Fold Change of orotic acid: 8380
  Fold Change of palmitic acid: 0.3979
  Fold Change of phenylalanine: −0.1906
  Fold Change of phenylpyruvic acid: 0
  Fold Change of phosphoenolpyruvate: 0
  Fold Change of pinitol: 0
  Fold Change of pipecolic acid: 0.08112
  Fold Change of porphobilinogen: 0
  Fold Change of proline: 0.4603
  Fold Change of pyridoxine: −0.1294
  Fold Change of retinoic acid: 0
  Fold Change of salicylic/HObenzoic: 0
  Fold Change of selenoOLmethionine: 0.8515
  Fold Change of serine: 0.1091
  Fold Change of shikimic acid: 0
  Fold Change of sinapinic acid: 0
  Fold Change of sorbitol/mannitol: 0.2162
  Fold Change of succinic: 0.8663
  Fold Change of sucrose: 0.4493
  Fold Change of sugar-phosphate: −0.1067
  Fold Change of tetradecanoic acid: −0.07723
  Fold Change of threonine/homoserin: 0.1267
  Fold Change of thymine: 0
  Fold Change of tryptophan: 1.142
  Fold Change of tyrosine: 0.0982
  Fold Change of uracil: 1.511
  Fold Change of uridine: 0.1126
  Fold Change of urocanic acid: 0
  Fold Change of valine: 0.1624
  Fold Change of xanthosineDiH2O: 0
  Fold Change of zeatin: 0
pLC
  Fold Change of 4-aminobenzoic acid: 0
  Fold Change of 4-methylcatechol: 0
  Fold Change of 4ambutyrate/dimglyc: 0.01279
  Fold Change of 5hydroxyLtryptophan: 0
  Fold Change of 6benzylaminopurine: 0
  Fold Change of DL-aminoadipic acid: 0.4703
  Fold Change of NacetylDglucosamine: 0
  Fold Change of NacetylLglutamate: 0
  Fold Change of NacetylLornithine: 1.319
  Fold Change of adenine: 0.1153
  Fold Change of alanine/sarcosine: 0.2602
  Fold Change of allantoic acid: 0
  Fold Change of anthranilic acid: 0
  Fold Change of arginine: 0.4662
  Fold Change of argininosuccinate: 0
  Fold Change of asparagine: 0.6344
  Fold Change of aspartic acid: 0.3594
  Fold Change of biotin: 0
  Fold Change of caffeine: 0
  Fold Change of citric acid TME: 0
  Fold Change of citrulline: 1.798
  Fold Change of cytidine: 0
  Fold Change of cytosine: 0
  Fold Change of diaminopimelic acid: 0
  Fold Change of dihydrofolic acid: 0
  Fold Change of dipicolinic acid: 0
  Fold Change of folic acid: 0
  Fold Change of glucosamine: 0
  Fold Change of glucosamine6PO4: 0
  Fold Change of glutamate: 0.4341
  Fold Change of glutathione: −0.03348
  Fold Change of histidine: 0
  Fold Change of hydrocortisone: 0
  Fold Change of hypoxanthine: 0.2057
  Fold Change of itaconic acid dimes: 0
  Fold Change of kinetin: 0
  Fold Change of leucine/isoleucine/: 0.2746
  Fold Change of luteolin: 0
  Fold Change of mannitol: 0.4543
  Fold Change of methionine: 0.3299
  Fold Change of mevalonic lactone: −0.4606
  Fold Change of niacinamide: 0
  Fold Change of nicotinic acid: −0.9989
  Fold Change of nopaline: 0
  Fold Change of ornithine: 0.5049
  Fold Change of phenylalanine: 0.4036
  Fold Change of phosphoenolpyruvate: 0
  Fold Change of pipecolic acid: 0.5237
  Fold Change of progesterone: 0
  Fold Change of proline: 0.6707
  Fold Change of pyridoxine: −0.1684
  Fold Change of selenoDLmethionine: 1.178
  Fold Change of sugar-phosphate: 0
  Fold Change of thiamine: 0
  Fold Change of threonine/homoserin: 0.3145
  Fold Change of thymine: 0
  Fold Change of tryptophan: 0
  Fold Change of uric acid: 308
  Fold Change of urocanic acid: 0
  Fold Change of xanthosine(diH2O): 0
  Fold Change of zeatin: 0
